Results: patent US10058550B2, “Methods of treating heart failure” (priority 2015, dated 2018)

Molecular target: human APJ receptor (Homo sapiens (Human), UniProt P35414)
Test: biochemical
Format: biochemical
Conditions: read-out: Activity hAPJ SPA EC50 IP
In short: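 Agonist-stimulated [35S]GTPγS (0.2 nM) binding was read by SPA after 90 min at room temperature. Buffer: 20 mM HEPES pH 7.5 with 5 mM MgCl2, 200 mM NaCl, 3 μM GDP, 0.1% BSA; membranes were from a stable human APJ CHO line. EC50 values are averages of independent runs, fitted by non-linear regression.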

human APJ receptor, sequence (P35414 whole entry): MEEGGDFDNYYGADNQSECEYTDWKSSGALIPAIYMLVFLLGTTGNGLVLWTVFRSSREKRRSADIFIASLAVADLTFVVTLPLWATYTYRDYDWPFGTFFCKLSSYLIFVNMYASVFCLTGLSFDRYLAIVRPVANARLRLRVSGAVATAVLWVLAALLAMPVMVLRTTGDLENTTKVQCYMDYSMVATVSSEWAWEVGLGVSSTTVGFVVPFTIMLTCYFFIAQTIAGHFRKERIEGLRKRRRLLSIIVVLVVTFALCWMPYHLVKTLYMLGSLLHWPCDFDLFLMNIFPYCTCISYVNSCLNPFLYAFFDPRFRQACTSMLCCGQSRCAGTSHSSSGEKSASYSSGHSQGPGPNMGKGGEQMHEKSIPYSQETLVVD

Row | SMILES | EC50
1 | COc1cccc(-c2nnc(NS(=O)(=O)[C@@H](C)[C@H](O)C(C)(C)C)n2-c2c(OC)cccc2OC)n1 (single isomer, unassigned) [Example 434.0, (2S,3R)—N-(4-(2,6-dimethoxyphenyl)-5-(6-methoxy-2-pyridinyl)-4H-1,2,4-triazol-3-yl)-3-hydroxy-4,4-dimethyl-2-pentanesulfonamide or (2R,3S)—N-(4-(2,6-dimethoxyphenyl)-5-(6-methoxy-2-pyridinyl)-4H-1,2,4-triazol-3-yl)-3-hydroxy-4,4-dimethyl-2-pentanesulfonamide] | 120 nM
2 | COc1cccc(-c2nnc(NS(=O)(=O)[C@@H](C)[C@@H](O)C(C)(C)C)n2-c2c(OC)cccc2OC)n1 (single isomer, unassigned) [Example 435.0, (2S,3S)—N-(4-(2,6-dimethoxyphenyl)-5-(6-methoxy-2-pyridinyl)-4H-1,2,4-triazol-3-yl)-3-hydroxy-4,4-dimethyl-2-pentanesulfonamide or (2R,3R)—N-(4-(2,6-dimethoxyphenyl)-5-(6-methoxy-2-pyridinyl)-4H-1,2,4-triazol-3-yl)-3-hydroxy-4,4-dimethyl-2-pentanesulfonamide] | 24 nM
3 | COc1cccc(-c2nnc(NS(=O)(=O)[C@@H](C)[C@@H](O)C(C)(C)C)n2-c2c(OC)cccc2OC)n1 (single isomer, unassigned) [Example 436.0, (2S,3S)—N-(4-(2,6-dimethoxyphenyl)-5-(6-methoxy-2-pyridinyl)-4H-1,2,4-triazol-3-yl)-3-hydroxy-4,4-dimethyl-2-pentanesulfonamide or (2R,3R)—N-(4-(2,6-dimethoxyphenyl)-5-(6-methoxy-2-pyridinyl)-4H-1,2,4-triazol-3-yl)-3-hydroxy-4,4-dimethyl-2-pentanesulfonamide] | 100 nM
4 | COc1cccc(-c2nnc(NS(=O)(=O)[C@@H](C)[C@H](O)C(C)(C)C)n2-c2c(OC)cccc2OC)n1 (single isomer, unassigned) [Example 437.0, (2S,3R)—N-(4-(2,6-dimethoxyphenyl)-5-(6-methoxy-2-pyridinyl)-4H-1,2,4-triazol-3-yl)-3-hydroxy-4,4-dimethyl-2-pentanesulfonamide or (2R,3S)—N-(4-(2,6-dimethoxyphenyl)-5-(6-methoxy-2-pyridinyl)-4H-1,2,4-triazol-3-yl)-3-hydroxy-4,4-dimethyl-2-pentanesulfonamide] | 31 nM
5 | COc1cccc(-c2nnc(NS(=O)(=O)[C@@H](C)[C@H](O)C3CC3)n2-c2c(OC)cccc2OC)n1 (single isomer, unassigned) [Example 439.0, (1R,2S)-1-cyclopropyl-N-(4-(2,6-dimethoxyphenyl)-5-(6-methoxy-2-pyridinyl)-4H-1,2,4-triazol-3-yl)-1-hydroxy-2-propanesulfonamide or (1S,2R)-1-cyclopropyl-N-(4-(2,6-dimethoxyphenyl)-5-(6-methoxy-2-pyridinyl)-4H-1,2,4-triazol-3-yl)-1-hydroxy-2-propanesulfonamide] | 110 nM
6 | COc1cccc(OC)c1-n1c(NS(=O)(=O)C[C@H](O)c2ccc(Cl)cc2S(C)(=O)=O)nnc1-c1cncc(C)c1 (single isomer, unassigned) [Example 458.0, (2R)-2-(4-chloro-2-(methylsulfonyl)phenyl)-N-(4-(2,6-dimethoxyphenyl)-5-(5-methyl-3-pyridinyl)-4H-1,2,4-triazol-3-yl)-2-hydroxyethanesulfonamide or (2S)-2-(4-chloro-2-(methylsulfonyl)phenyl)-N-(4-(2,6-dimethoxyphenyl)-5-(5-methyl-3-pyridinyl)-4H-1,2,4-triazol-3-yl)-2-hydroxyethanesulfonamide] | 0.16 nM
7 | COc1cccc(-c2nnc(NS(=O)(=O)[C@@H](C)[C@H](OC)c3ccc(C#N)cc3C#N)n2-c2c(OC)cccc2OC)n1 (single isomer, unassigned) [Example 474.0, (1R,2S)-1-(2,4-dicyanophenyl)-N-(4-(2,6-dimethoxyphenyl)-5-(6-methoxy-2-pyridinyl)-4H-1,2,4-triazol-3-yl)-1-methoxy-2-propanesulfonamide or (1S,2R)-1-(2,4-dicyanophenyl)-N-(4-(2,6-dimethoxyphenyl)-5-(6-methoxy-2-pyridinyl)-4H-1,2,4-triazol-3-yl)-1-methoxy-2-propanesulfonamide] | 0.35 nM
8 | COc1cccc(-c2nnc(NS(=O)(=O)[C@H](C)[C@H](OC)c3ccc(C#N)cc3C#N)n2-c2c(OC)cccc2OC)n1 (single isomer, unassigned) [Example 476.0, (1R,2R)-1-(2,4-dicyanophenyl)-N-(4-(2,6-dimethoxyphenyl)-5-(6-methoxy-2-pyridinyl)-4H-1,2,4-triazol-3-yl)-1-methoxy-2-propanesulfonamide or (1S,2S)-1-(2,4-dicyanophenyl)-N-(4-(2,6-dimethoxyphenyl)-5-(6-methoxy-2-pyridinyl)-4H-1,2,4-triazol-3-yl)-1-methoxy-2-propanesulfonamide] | 0.55 nM
9 | COc1cccc(-c2nnc(NS(=O)(=O)C[C@@H](O)c3ccc(C#N)cc3S(C)(=O)=O)n2-c2c(OC)cccc2OC)n1 (single isomer, unassigned) [Example 482.0, (2S)-2-(4-cyano-2-(methylsulfonyl)phenyl)-N-(4-(2,6-dimethoxyphenyl)-5-(6-methoxy-2-pyridinyl)-4H-1,2,4-triazol-3-yl)-2-hydroxyethanesulfonamide or (2R)-2-(4-cyano-2-(methylsulfonyl)phenyl)-N-(4-(2,6-dimethoxyphenyl)-5-(6-methoxy-2-pyridinyl)-4H-1,2,4-triazol-3-yl)-2-hydroxyethanesulfonamide] | 0.2 nM
10 | COc1cccc(-c2nnc(NS(=O)(=O)C[C@H](OC)c3ccc(C#N)cc3S(C)(=O)=O)n2-c2c(OC)cccc2OC)n1 (single isomer, unassigned) [Example 485.0, (2R)-2-(4-cyano-2-(methylsulfonyl)phenyl)-N-(4-(2,6-dimethoxyphenyl)-5-(6-methoxy-2-pyridinyl)-4H-1,2,4-triazol-3-yl)-2-methoxyethanesulfonamide or (2S)-2-(4-cyano-2-(methylsulfonyl)phenyl)-N-(4-(2,6-dimethoxyphenyl)-5-(6-methoxy-2-pyridinyl)-4H-1,2,4-triazol-3-yl)-2-methoxyethanesulfonamide] | 0.098 nM
11 | COc1cccc(-c2nnc(NS(=O)(=O)C[C@H](OC)c3ccc(C#N)cc3S(C)(=O)=O)n2-c2c(OC)cccc2OC)n1 (single isomer, unassigned) [Example 486.0, (2R)-2-(4-cyano-2-(methylsulfonyl)phenyl)-N-(4-(2,6-dimethoxyphenyl)-5-(6-methoxy-2-pyridinyl)-4H-1,2,4-triazol-3-yl)-2-methoxyethanesulfonamide or (2S)-2-(4-cyano-2-(methylsulfonyl)phenyl)-N-(4-(2,6-dimethoxyphenyl)-5-(6-methoxy-2-pyridinyl)-4H-1,2,4-triazol-3-yl)-2-methoxyethanesulfonamide] | 0.073 nM
